{"source": "paper PMC9970836", "about": "(Biomolecules & Therapeutics, 2022)", "data": [{"target": "5-HT2AR (Homo sapiens, UniProt P28223)", "sequence (P28223 whole entry)": "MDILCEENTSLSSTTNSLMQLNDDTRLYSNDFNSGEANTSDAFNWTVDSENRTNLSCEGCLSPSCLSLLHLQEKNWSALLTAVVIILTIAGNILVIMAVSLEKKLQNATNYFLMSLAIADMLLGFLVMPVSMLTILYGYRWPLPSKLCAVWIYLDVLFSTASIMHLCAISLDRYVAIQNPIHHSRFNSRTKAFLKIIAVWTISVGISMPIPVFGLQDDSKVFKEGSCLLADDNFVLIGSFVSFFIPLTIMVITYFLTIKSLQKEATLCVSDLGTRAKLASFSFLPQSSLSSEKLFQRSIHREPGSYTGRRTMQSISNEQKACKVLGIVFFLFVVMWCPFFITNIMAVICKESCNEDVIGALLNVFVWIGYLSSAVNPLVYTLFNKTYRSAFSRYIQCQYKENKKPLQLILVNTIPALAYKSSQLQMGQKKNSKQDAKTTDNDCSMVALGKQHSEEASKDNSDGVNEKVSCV", "assay": "5-HT2AR radioligand binding assay", "units": {"Ki": "nM"}, "values": [{"smiles": "CCCc1cc(OC)c(CCN)cc1OC", "note": "[Compd 1, 2,5-dimethoxy-4-propyl-benzeneethanamine]", "Ki": 3.47}, {"smiles": "COc1cc([N+](=O)[O-])c(OC)cc1CCN", "note": "[Compd 2, 2,5-Dimethoxy-4-nitrophenethylamine]", "Ki": 25.2}, {"smiles": "COc1cc(CCNCc2ccccc2OC)c(OC)cc1C", "note": "[Compd 6, 2-(2,5-dimethoxy-4-methylphenyl)-N-(2-methoxybenzyl)ethanamine]", "Ki": 2.88}, {"smiles": "CCc1cc(OC)c(CCNCc2ccccc2OC)cc1OC", "note": "[Compd 7, 2-(4-ethyl-2,5-dimethoxyphenyl)-N-(2-methoxybenzyl)ethan-1-amine]", "Ki": 1.52}, {"smiles": "COc1cc(CCNCc2ccccc2OC)c(OC)cc1Cl", "note": "[Compd 8, 2-(4-chloro-2,5-dimethoxyphenyl)-N-(2-methoxybenzyl)ethanamine]", "Ki": 0.817}, {"smiles": "COc1cc(CCNCc2ccccc2F)c(OC)cc1Cl", "note": "[Compd 11, 4-chloro-N-[(2-fluorophenyl)methyl]-2,5-dimethoxy-benzeneethanamine]", "Ki": 10.8}, {"smiles": "COc1cc(CCNCc2ccccc2F)c(OC)cc1Br", "note": "[Compd 12, 4-bromo-N-[(2-fluorophenyl)methyl]-2,5-dimethoxy-benzeneethanamine]", "Ki": 3.63}, {"smiles": "CCN(CC)CCc1c[nH]c2cccc(OC(C)=O)c12", "note": "[Compd 18, 4-Acetoxy-N,N-diethyltryptamine]", "Ki": 595}, {"smiles": "CCCN(CC)CCc1c[nH]c2ccc(OC)cc12", "note": "[Compd 20, 5-methoxy -N-ethyl-N-propyl tryptamine]", "Ki": 122}, {"smiles": "C=CCN(CC=C)CCc1c[nH]c2ccc(OC)cc12", "note": "[Compd 25, N-allyl-N-[2-(5-methoxy-1H-indol-3-yl)ethyl] prop-2-en-1-amine]", "Ki": 258}]}]}
